Assay [1] has as its system all the bacteria and the fungus tested. Briefly: Antimicrobial and antifungal tests, MIC ranges summarised over the panel. In kind it is cell-based. The following applies: for reduction of activity with respect to that of 9: compared with compound 9. On the procedure:
(§1) The experiment was performed in triplicate.
as §1

The test system of assay [2] is Colletotrichum truncatum 17-5-5. To be noted: strain 17-5-5; lipodepsipeptides, serial dilutions from 0.1 to 1 μg/mL, potato dextrose broth, 24-well plates, 28 °C, 7 days; lowest concentration with no visible growth; triplicate.
Experimental: The antifungal activity was performed in 24-well culture plates according to the method previously described[31] with some modification. Serial dilutions of different lipodepsipeptides (from 0.1 to 1 μg/mL) and cyclic dipeptides (from 10 to 1000 μg/mL) were dissolved in a volume of 500 μL of ultrapure Milli-Q and finally inoculated with 500 μL of 2× potato dextrose broth (Difco) containing the Colletotrichum truncatum plug of 4 mm × 4 mm diameter. As a control, C. truncatum plugs (4 mm × 4 mm) were grown in 2× PD broth diluted with 500 μL of ultrapure Milli-Q water, and the plates were incubated at 28 °C for 7 days. The MIC was measured as the lowest concentration of antifungal agent at which there was no visible growth of the fungus after incubation. The experiment was performed in triplicate.
For the next assay, the system named is Phytophthora infestans. To be noted: cited from earlier work.
The next assay concerns Plasmopara viticola. To be noted: cited from earlier work.
The test system of another assay is Rhodococcus fascians LMG. To be noted: cited from earlier work.
A further assay relates to Bacillus subtilis PY79. The following applies: PY79, 48 h.
The subject of the next assay is Bacillus megaterium QMB. To be noted: 48 h.
Setting [3] is: lipodepsipeptides and derivatives, range over all the bacteria and the fungus tested (summary of Table 1).
Setting [4] is: 2,5-diketopiperazines, range over all microorganisms tested (summary of Table 2).

Converted amounts (≈) assume the structure as drawn. Where a SMILES comes first, the peptide text is derived from it. Bridges are numbered along the chain shown (N, C = ends). [ ]: non-standard residue; d: D form. The star is where a group is joined. ξ: configuration not given here. d(aThr) = C[C@@H](O)[C@@H](N)C(=O)O; Octanoyl(3-OH) = CCCCCC(O)CC(=O)*; X1 = CCCCCC(CC(=O)*)OC(C)=O; dDab = NCC[C@@H](N)C(=O)O; hSer = N[C@@H](CCO)C(=O)O; ξQ = NC(=O)CCC(N)C(=O)O; Dhb = C/C=C(\N)C(=O)O; ξL = CC(C)CC(N)C(=O)O; ξDab = NCCC(N)C(=O)O; ξK = NCCCCC(N)C(=O)O; ξT = CC(O)C(N)C(=O)O; ξV = CC(C)C(N)C(=O)O; ξAbu = CCC(N)C(=O)O; ξP = O=C(O)C1CCCN1; ξS = NC(CO)C(=O)O

The values that follow come from publication PMC9026286, “Bacterial Lipodepsipeptides and Some of Their Derivatives and Cyclic Dipeptides as Potential Agents for Biocontrol of Pathogenic Bacteria and Fungi of Agrarian Plants” (Journal of Agricultural and Food Chemistry, 2022).

The term MIC denotes the lowest concentration found to suppress growth. Lower therefore signals inhibition by little substance.

Experimental for Bacillus megaterium QMB: (§2) Bacteria were grown in LB broth at 25 or 37 °C overnight at 150 rpm. A total of 500 μL of a suspension containing about 10^8 cfu mL^–1 were added to 3 mL of LB soft agar (0.7%) and poured onto plates containing 7 mL of LB broth with agar 1.8%. After agar gelification, 10 μL drops of serial dilutions of different lipodepsipeptides and their derivatives (from 0.1 to 1 μg/mL) and cyclic dipeptides (from 10 to 1000 μg/mL) were tested. After 24 ± 48 h of incubation at 25 or 37 °C, the end serial dilution inhibiting the growth of the bacteria in the area of application of 10 μL solutions was recorded. The plates containing the bacteria alone were used as a control. The experiment was performed in triplicate.
Experimental for Bacillus subtilis PY79: as §2

`C/C=C(\NC(=O)[C@H](NC(=O)[C@H](CC(C)C)NC(=O)[C@@H](CCC(N)=O)NC(=O)[C@@H](NC(=O)[C@H](NC(=O)[C@@H](CC(C)C)NC(=O)[C@@H](COC(C)=O)NC(=O)[C@H](NC(=O)[C@@H](CC(C)C)NC(=O)[C@@H](COC(C)=O)NC(=O)[C@H]1CCCN1C(=O)/C(=C/C)NC(=O)CC(CCCCC)OC(C)=O)C(C)C)C(C)C)C(C)C)C(C)C)C(=O)N[C@H]1C(=O)N[C@@H]([C@@H](C)CC)C(=O)N[C@@H](CCOC(C)=O)C(=O)N[C@H](CCNC(C)=O)C(=O)N[C@@H](CCCCNC(C)=O)C(=O)O[C@@H]1C` (stereo partly drawn) [compound 15, hexacetyl tolaasin I] (X1-[Dhb][dP][dS](Ac)[dL][dV][dS](Ac)[dL][dV]V[dQ]L[dV][Dhb][d(aThr)]I[hSer](Ac)[dDab](Ac)K(Ac); ester 14-C): the MIC range in assay [1] (lipodepsipeptides and derivatives, range against the pathogenic bacteria and C. truncatum only) was in the range of 0.7 to 1 µg/mL; in assay [1] (setting [3]) it was 0.7 to 1 µg/mL. In assay [2], this molecule showed a minimum inhibitory concentration (MIC) of 1 µg/mL (≈ 0.446 µM).
With `C/C=C(\NC(=O)C(NC(=O)C(CC(C)C)NC(=O)C(CCC(N)=O)NC(=O)C(NC(=O)C(NC(=O)C(CC(C)C)NC(=O)C(CO)NC(=O)C(NC(=O)C(CC(C)C)NC(=O)C(CO)NC(=O)C1CCCN1C(=O)/C(=C/C)NC(=O)CC(O)CCCCC)C(C)C)C(C)C)C(C)C)C(C)C)C(=O)NC1C(=O)N[C@@H](CC(C)C)C(=O)N[C@@H](CCO)C(=O)NC(CCN)C(=O)NC(CCCCN)C(=O)OC1C` (stereo partly drawn) [compound 7, tolaasin D] ({Octanoyl(3-OH)}-[Dhb][ξP][ξS][ξL][ξV][ξS][ξL][ξV][ξV][ξQ][ξL][ξV][Dhb][ξT]L[hSer][ξDab][ξK]; ester 14-C), the MIC range in assay [1] (setting [3]) lay in the range of 0.1 to 0.2 µg/mL. The molecule further displayed an MIC in assay [2] of 0.2 µg/mL (≈ 0.101 µM).
The molecule `O=C1N[C@@H](Cc2ccc(O)cc2)C(=O)N2CCC[C@@H]12` [compound 9, cyclo(L-Pro-L-Tyr)] gave an MIC range in assay [1] (setting [4]) of 15 to 20 µg/mL. Moreover, the “antifungal activity against Phytophthora infestans” value in the assay on Phytophthora infestans was “showed antifungal activity”. For the same molecule, in the assay with Plasmopara viticola, the “antifungal activity against Plasmopara viticola” value is “showed antifungal activity”.
On to `C/C=C(\NC(=O)[C@H](NC(=O)[C@H](CC(C)C)NC(=O)[C@@H](CCC(N)=O)NC(=O)[C@@H](NC(=O)[C@H](NC(=O)[C@@H](CC(C)C)NC(=O)[C@@H](CO)NC(=O)[C@H](NC(=O)[C@@H](CC(C)C)NC(=O)[C@@H](CO)NC(=O)[C@H]1CCCN1C(=O)/C(=C/C)NC(=O)CC(O)CCCCC)C(C)C)C(C)C)C(C)C)C(C)C)C(=O)N[C@H]1C(=O)N[C@@H]([C@@H](C)CC)C(=O)N[C@@H](CCO)C(=O)N[C@H](CCN)C(=O)N[C@@H](CCCCN)C(=O)O[C@@H]1C` (stereo partly drawn) [compound 1, tolaasin I] ({Octanoyl(3-OH)}-[Dhb][dP][dS][dL][dV][dS][dL][dV]V[dQ]L[dV][Dhb][d(aThr)]I[hSer][dDab]K; ester 14-C), for which the MIC in assay [2] is 0.6 µg/mL (≈ 0.302 µM).
For the molecule cyclo(L-Pro-L-Val) [compound 11], the MIC range result in assay [1] (setting [4]) is listed as “not toxic”. Besides, the “toxicity against Rhodococcus fascians” value in the assay on Rhodococcus fascians LMG is listed as “toxicity similar to that of chloramphenicol”.
WLIP methyl ester [WILP methyl ester] had an MIC in assay [2] of 5 µg/mL.
Turning to `O=C1N[C@@H](Cc2ccc(O)cc2)C(=O)N2CCC[C@H]12` [compound 14, cyclo(D-Pro-L-Tyr)], the “reduction of activity with respect to that of 9” value in assay [1] (2,5-diketopiperazines) is 50–60 times.
On to `CC(C)C[C@@H]1NC(=O)[C@@H]2CCCN2C1=O` [compound 13, cyclo(L-Pro-L-Leu)], for which the “reduction of activity with respect to that of 9” value in assay [1] (2,5-diketopiperazines) is recorded as 40–50 times. Further, the MIC in the assay with Bacillus subtilis PY79 is 15 µg/mL (≈ 71.3 µM); in the assay on Bacillus megaterium QMB, 30 µg/mL (≈ 143 µM).
For `CCCCCC(O)CC(=O)NC(CC)C(=O)N1CCC[C@@H]1C(=O)N[C@H](CO)C(=O)N[C@H](CC(C)C)C(=O)N[C@@H](C(=O)N[C@H](CO)C(=O)N[C@H](CC(C)C)C(=O)N[C@@H](C(=O)N[C@H](C(=O)N[C@H](CCC(N)=O)C(=O)N[C@@H](CC(C)C)C(=O)N[C@@H](C(=O)NC(CC)C(=O)N[C@H]1C(=O)N[C@@H]([C@@H](C)CC)C(=O)N[C@@H](CCO)C(=O)N[C@H](CCN)C(=O)N[C@@H](CCCCN)C(=O)O[C@@H]1C)C(C)C)C(C)C)C(C)C)C(C)C` (stereo partly drawn) [compound 16, tetrahydro tolaasin I] ({Octanoyl(3-OH)}-[ξAbu][dP][dS][dL][dV][dS][dL][dV]V[dQ]L[dV][ξAbu][d(aThr)]I[hSer][dDab]K; ester 14-C), the MIC range in assay [1] (setting [3]) fell in the range of 0.2 to 3 µg/mL. In assay [2], this molecule registered an MIC of 3 µg/mL (≈ 1.51 µM).
